Data taken from patent publication US11180494B2, “Substituted amino acids as integrin inhibitors” (Pliant Therapeutics, Inc., priority 2018, dated 2021).
pIC50: −log10 of the molar value.

target: human integrin αvβ6 (Homo sapiens (Human), UniProt P06756+P18564); assay: Proximity-based integrin receptor binding assay (ALPHASCREEN) for inhibitor potency; details: inhibition of binding of TGF-b1 LAP to human integrin αvβ6; values given in ranges
Outline: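 AlphaScreen: integrin, compound, TGF-b1 LAP, biotinylated anti-LAP antibody and acceptor beads incubated 2 hours, then streptavidin donor beads 30 minutes, at room temperature in 50 mM Tris-HCl pH 7.5, 0.1% BSA, 1 mM CaCl2 and MgCl2. Excitation 680 nm, emission 520-620 nm; IC50 by four-parameter logistic fit.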

Chain of human integrin αvβ6 (P06756 31-992): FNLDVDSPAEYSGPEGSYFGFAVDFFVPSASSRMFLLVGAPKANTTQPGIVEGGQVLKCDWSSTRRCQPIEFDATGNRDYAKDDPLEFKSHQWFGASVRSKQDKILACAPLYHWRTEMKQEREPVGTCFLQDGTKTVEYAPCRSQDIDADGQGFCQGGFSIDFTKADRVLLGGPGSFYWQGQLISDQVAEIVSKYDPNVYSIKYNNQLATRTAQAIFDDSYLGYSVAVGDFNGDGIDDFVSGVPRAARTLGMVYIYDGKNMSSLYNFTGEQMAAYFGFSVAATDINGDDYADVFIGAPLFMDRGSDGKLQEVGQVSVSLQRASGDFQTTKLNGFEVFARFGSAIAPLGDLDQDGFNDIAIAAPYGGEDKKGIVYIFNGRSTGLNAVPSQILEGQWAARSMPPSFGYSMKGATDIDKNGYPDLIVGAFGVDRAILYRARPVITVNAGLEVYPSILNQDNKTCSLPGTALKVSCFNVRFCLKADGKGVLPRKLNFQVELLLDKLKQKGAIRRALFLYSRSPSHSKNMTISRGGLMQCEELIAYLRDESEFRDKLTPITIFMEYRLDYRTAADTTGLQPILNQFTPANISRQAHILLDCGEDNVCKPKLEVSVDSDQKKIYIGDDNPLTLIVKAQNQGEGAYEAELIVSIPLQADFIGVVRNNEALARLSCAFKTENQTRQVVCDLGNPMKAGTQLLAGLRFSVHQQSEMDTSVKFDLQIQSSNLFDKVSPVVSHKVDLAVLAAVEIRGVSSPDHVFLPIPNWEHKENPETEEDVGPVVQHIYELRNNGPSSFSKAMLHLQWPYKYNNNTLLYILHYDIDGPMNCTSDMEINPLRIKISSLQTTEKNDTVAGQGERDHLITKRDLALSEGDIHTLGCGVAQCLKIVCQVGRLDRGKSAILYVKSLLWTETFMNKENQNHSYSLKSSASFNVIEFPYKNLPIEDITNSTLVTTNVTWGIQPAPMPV
Chain of human integrin αvβ6 (P18564 22-707): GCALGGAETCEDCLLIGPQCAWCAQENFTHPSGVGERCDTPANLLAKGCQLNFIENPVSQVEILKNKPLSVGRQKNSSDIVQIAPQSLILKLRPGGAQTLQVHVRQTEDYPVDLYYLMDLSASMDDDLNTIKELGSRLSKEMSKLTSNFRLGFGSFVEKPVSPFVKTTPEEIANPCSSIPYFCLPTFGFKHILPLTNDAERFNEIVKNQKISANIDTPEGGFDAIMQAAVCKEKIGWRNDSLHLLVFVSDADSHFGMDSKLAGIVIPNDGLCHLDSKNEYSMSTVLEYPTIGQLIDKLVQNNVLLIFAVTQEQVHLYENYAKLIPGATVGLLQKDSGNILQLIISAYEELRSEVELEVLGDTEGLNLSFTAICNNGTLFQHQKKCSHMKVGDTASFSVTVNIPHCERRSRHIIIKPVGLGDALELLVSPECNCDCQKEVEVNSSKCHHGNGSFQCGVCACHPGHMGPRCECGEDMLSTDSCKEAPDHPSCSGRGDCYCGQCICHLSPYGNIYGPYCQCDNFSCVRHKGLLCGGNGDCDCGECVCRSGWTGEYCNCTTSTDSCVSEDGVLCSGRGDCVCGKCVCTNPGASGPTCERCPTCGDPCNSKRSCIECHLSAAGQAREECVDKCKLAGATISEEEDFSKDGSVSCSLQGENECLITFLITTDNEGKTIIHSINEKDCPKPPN

SMILES	pIC50
CC(=O)N1CC[C@@H](OC(=O)N[C@@H](CCO[C@H]2C[C@H](CCc3ccc4c(n3)NCCC4)C2)C(=O)O)C1 [Compound 139, N—((((R)-1-acetylpyrrolidin-3-yl)oxy)carbonyl)-O-(trans-3-(2-(5,6,7,8-tetrahydro-1,8-naphthyridin-2-yl)ethyl)cyclobutyl)homoserine]	< 6.00
C[C@@H](OC(=O)N[C@@H](CCO[C@H]1C[C@H](CCc2ccc3c(n2)NCCC3)C1)C(=O)O)c1ccccc1 [Compound 140, N—(((R)-1-phenylethoxy)carbonyl)-O-(trans-3-(2-(5,6,7,8-tetrahydro-1,8-naphthyridin-2-yl)ethyl)cyclobutyl)homoserine]	6.00 to 6.60
C[C@H](OC(=O)N[C@@H](CCO[C@H]1C[C@H](CCc2ccc3c(n2)NCCC3)C1)C(=O)O)c1ccccc1 [Compound 141, N—(((S)-1-phenylethoxy)carbonyl)-O-(trans-3-(2-(5,6,7,8-tetrahydro-1,8-naphthyridin-2-yl)ethyl)cyclobutyl)homoserine]	> 7.30
O=C(NC(CCO[C@H]1C[C@H](CCc2ccc3c(n2)NCCC3)C1)C(=O)O)OC1CCC1c1ccccc1 (stereo partly drawn) [Compound 142, N-((2-phenylcyclobutoxy)carbonyl)-O-(trans-3-(2-(5,6,7,8-tetrahydro-1,8-naphthyridin-2-yl)ethyl)cyclobutyl)homoserine]	6.60 to 7.30
O=C(N[C@@H](CCO[C@H]1C[C@H](CCc2ccc3c(n2)NCCC3)C1)C(=O)O)O[C@H]1C[C@@H](c2ccccc2)C1 [Compound 143, N-((cis-3-phenylcyclobutoxy)carbonyl)-O-(trans-3-(2-(5,6,7,8-tetrahydro-1,8-naphthyridin-2-yl)ethyl)cyclobutyl)homoserine]	6.00 to 6.60
O=C(N[C@@H](CCO[C@H]1C[C@H](CCc2ccc3c(n2)NCCC3)C1)C(=O)O)O[C@@H]1CCCC[C@H]1c1ccccc1 [Compound 144, N-((((1R,2S)-2-phenylcyclohexyl)oxy)carbonyl)-O-(trans-3-(2-(5,6,7,8-tetrahydro-1,8-naphthyridin-2-yl)ethyl)cyclobutyl)homoserine]	6.00 to 6.60
O=C(N[C@@H](CCO[C@H]1C[C@H](CCc2ccc3c(n2)NCCC3)C1)C(=O)O)O[C@H]1CCCC[C@@H]1c1ccccc1 [Compound 146, N-((((1S,2R)-2-phenylcyclohexyl)oxy)carbonyl)-O-(trans-3-(2-(5,6,7,8-tetrahydro-1,8-naphthyridin-2-yl)ethyl)cyclobutyl)homoserine]	6.60 to 7.30
CC(C)(C)OC(=O)N1CC(OC(=O)N[C@@H](CCO[C@H]2C[C@H](CCc3ccc4c(n3)NCCC4)C2)C(=O)O)C1 [Compound 147, N-(((1-(tert-butoxycarbonyl)azetidin-3-yl)oxy)carbonyl)-O-(trans-3-(2-(5,6,7,8-tetrahydro-1,8-naphthyridin-2-yl)ethyl)cyclobutyl)homoserine]	> 7.30
O=C(N[C@@H](CCO[C@H]1C[C@H](CCc2ccc3c(n2)NCCC3)C1)C(=O)O)O[C@H]1CC[C@H](c2ccccc2)CC1 [Compound 148, N-(((trans-4-phenylcyclohexyl)oxy)carbonyl)-O-(trans-3-(2-(5,6,7,8-tetrahydro-1,8-naphthyridin-2-yl)ethyl)cyclobutyl)homoserine]	6.00 to 6.60
O=C(N[C@@H](CCO[C@H]1C[C@H](CCc2ccc3c(n2)NCCC3)C1)C(=O)O)O[C@H]1CC[C@@H](c2ccccc2)CC1 [Compound 149, N-(((cis-4-phenylcyclohexyl)oxy)carbonyl)-O-(trans-3-(2-(5,6,7,8-tetrahydro-1,8-naphthyridin-2-yl)ethyl)cyclobutyl)homoserine]	6.60 to 7.30
CC(=O)N1CC(OC(=O)N[C@@H](CCO[C@H]2C[C@H](CCc3ccc4c(n3)NCCC4)C2)C(=O)O)C1 [Compound 150, N-(((1-acetylazetidin-3-yl)oxy)carbonyl)-O-(trans-3-(2-(5,6,7,8-tetrahydro-1,8-naphthyridin-2-yl)ethyl)cyclobutyl)homoserine]	6.00 to 6.60
CC(=O)NC[C@H](C)OC(=O)N[C@@H](CCO[C@H]1C[C@H](CCc2ccc3c(n2)NCCC3)C1)C(=O)O [Compound 151, N—((((S)-1-acetamidopropan-2-yl)oxy)carbonyl)-O-(trans-3-(2-(5,6,7,8-tetrahydro-1,8-naphthyridin-2-yl)ethyl)cyclobutyl)homoserine]	> 7.30
C[C@@H](CNC(=O)OC(C)(C)C)OC(=O)N[C@@H](CCO[C@H]1C[C@H](CCc2ccc3c(n2)NCCC3)C1)C(=O)O [Compound 152, N—((((S)-1-((tert-butoxycarbonyl)amino)propan-2-yl)oxy)carbonyl)-O-(trans-3-(2-(5,6,7,8-tetrahydro-1,8-naphthyridin-2-yl)ethyl)cyclobutyl)homoserine]	> 7.30
C[C@H](CNC(=O)OC(C)(C)C)OC(=O)N[C@@H](CCO[C@H]1C[C@H](CCc2ccc3c(n2)NCCC3)C1)C(=O)O [Compound 153, N—((((R)-1-((tert-butoxycarbonyl)amino)propan-2-yl)oxy)carbonyl)-O-(trans-3-(2-(5,6,7,8-tetrahydro-1,8-naphthyridin-2-yl)ethyl)cyclobutyl)homoserine]	> 7.30
CC(=O)NC[C@@H](C)OC(=O)N[C@@H](CCO[C@H]1C[C@H](CCc2ccc3c(n2)NCCC3)C1)C(=O)O [Compound 154, N—((((R)-1-acetamidopropan-2-yl)oxy)carbonyl)-O-(trans-3-(2-(5,6,7,8-tetrahydro-1,8-naphthyridin-2-yl)ethyl)cyclobutyl)homoserine]	6.00 to 6.60
CC(C)(C)OC(=O)N1CC(OC(=O)N[C@@H](CCO[C@H]2C[C@H](CCc3ccc4c(n3)NCCC4)C2)C(=O)O)(c2cccc(Cl)c2)C1 [Compound 157, N-(((1-(tert-butoxycarbonyl)-3-(3-chlorophenyl)azetidin-3-yl)oxy)carbonyl)-O-(trans-3-(2-(5,6,7,8-tetrahydro-1,8-naphthyridin-2-yl)ethyl)cyclobutyl)homoserine]	> 7.30
CC(C)c1ccc(C2(OC(=O)N[C@@H](CCO[C@H]3C[C@H](CCc4ccc5c(n4)NCCC5)C3)C(=O)O)CN(C(=O)OC(C)(C)C)C2)cc1 [Compound 158, N-(((1-(tert-butoxycarbonyl)-3-(4-isopropylphenyl)azetidin-3-yl)oxy)carbonyl)-O-(trans-3-(2-(5,6,7,8-tetrahydro-1,8-naphthyridin-2-yl)ethyl)cyclobutyl)homoserine]	> 7.30
CC(C)(C)OC(=O)N1CC(C#Cc2ccccc2)(OC(=O)N[C@@H](CCO[C@H]2C[C@H](CCc3ccc4c(n3)NCCC4)C2)C(=O)O)C1 [Compound 159, N-(((1-(tert-butoxycarbonyl)-3-(phenylethynyl)azetidin-3-yl)oxy)carbonyl)-O-(trans-3-(2-(5,6,7,8-tetrahydro-1,8-naphthyridin-2-yl)ethyl)cyclobutyl)homoserine]	> 7.30
CC(C)(C)OC(=O)N1CCC(C(=O)N[C@@H](CCO[C@H]2C[C@H](CCc3ccc4c(n3)NCCC4)C2)C(=O)O)CC1 [Compound 160, N-(1-(tert-butoxycarbonyl)piperidine-4-carbonyl)-O-(trans-3-(2-(5,6,7,8-tetrahydro-1,8-naphthyridin-2-yl)ethyl)cyclobutyl)homoserine]	6.60 to 7.30
O=C(NC(CCO[C@H]1C[C@H](CCc2ccc3c(n2)NCCC3)C1)C(=O)O)C1CCCC(F)(F)C1 (stereo partly drawn) [Compound 161, N-(3,3-difluorocyclohexane-1-carbonyl)-O-(trans-3-(2-(5,6,7,8-tetrahydro-1,8-naphthyridin-2-yl)ethyl)cyclobutyl)homoserine]	> 7.30
